# Key:
# [1] = target: T1, VapBC26 protein complex containing Y51E (Mycobacterium tuberculosis, UniProt O53778, Y51E)
# [2] = target: T1, VapBC26 protein complex containing Y51E; remark: listed apart in the source
sequence,measurement,setting,value
DAELAVLRELAG [mimetic peptide for VapC26 α4],fluorescence increase in Y51E,[1],15.07%
same,"calculated area corresponding to VapC26, larger than with the native protein complex",[2],15.42%
